Measurements taken from patent US20110300222A1, “LUMINESCENT POROUS SILICON NANOPARTICLES, METHODS OF MAKING AND USING SAME” (THE REGENTS OF THE UNIVERSITY OF CALIFORNIA, priority 2009, published 2011).

Legend:
[1] = in ethanol; cited from earlier work
[2] = 25° C.; cited from earlier work
[3] = Biodistribution of DOX in mouse organs (DOX fluorescence); format: in vivo; conditions: mice n=3, 24 h after single i.v. injection, 2 mgDOX/kg
Method: To determine biodistribution of free DOX and DOX-LPSiNP in mouse, the organs (liver, spleen, kidney, lung, heart, and brain) were collected 24 h after injection, weighed, homogenized in 1.5 mL of 0.3 M HCl 70% ethanol solution, and further incubated in the same solution overnight to extract DOX molecules from the organs and DOX-LPSiNP. The homogenized solution was spun down at 10,000 rpm for 10 min and the supernatant was only used to measure the DOX fluorescence. The DOX fluorescence (λex=480nm and λem=590 nm) in each tissue was quantified as % injected dose (% ID) per gram of wet tissue.

[4] = In vivo toxicity (body mass, histology of kidney, liver, spleen); set-up: species or system mouse; conditions: mice n=3, 2 mgDOX/kg i.v., period of 3 weeks
Method: In vivo degradation, toxicity, and circulation. All animal work was performed in accordance with the institutional animal protocol guidelines in place at the Burnham Institute for Medical Research, and it was reviewed and approved by the Institute's Animal Research Committee. […] For in vivo degradation studies, the mice were sacrificed 1 day, 1 week and 4 weeks after injection, and the brain, heart, kidney, liver, lung, and spleen were collected. The tissues were weighed, digested, and then analyzed for silicon content using ICP-OES. For the in vivo toxicity studies, the mass of each mouse was monitored for 4 weeks after injection and compared with control mice (PBS-injected). The sections of kidney, liver, and spleen tissues harvested from the mice 1 day and 4 weeks after injection were stained with haematoxylin and eosin and then examined by a pathologist.
To examine preliminary in vivo toxicity, body mass of the mice was monitored every 3 days over a period of 3 weeks.

## O=C(O)c1ccccc1C1=c2cc3c4c(c2Oc2c1cc1c5c2CCCN5CCC1)CCC[N+]=4CCC3.[Cl-] [Rhodamine 101]
[1]
  quantum yield of standard: 100%

## OB(O)O [boric acid]
[2]
  pKa: 9.14

## COc1cccc2c1C(=O)c1c(O)c3c(c(O)c1C2=O)C[C@@](O)(C(=O)CO)C[C@@H]3O[C@H]1C[C@H](N)[C@H](O)[C@H](C)O1 [free DOX, doxorubicin]
[3]
  biodistribution of DOX: accumulated in kidney, lung, and heart
[4]
  body mass (weight) change vs PBS control: no statistically significant difference
